# Measurements reported in patent US9303019B2, “Amino-pyrroline derivatives, and use thereof in the prevention and/or treatment of metabolic syndrome” (UNIVERSITE DE STRASBOURG, priority 2012, dated 2016).
# Key:
# I1 receptor = I1 receptor (Rattus norvegicus, UniProt Q4G017); experiment: Competitive binding to [125I]-PIC in membranes of PC12 cells; settings: PC12 cell membranes
# Description: The PC-12 cells were cultured in 75-cm^2 dishes in DMEM medium (1000 mg/l glucose) supplemented with 10% FBS inactivated by treatment at 56° C., 100 U/ml penicillin and 100 μg/ml streptomycin. When the cells reached confluence (3 to 4 days after the start of culture) they were harvested and passaged via the action of 0.25% trypsin for 2 minutes at 37° C. For the specific binding assays, the medium was removed and the cells stored by freezing to −20° C. until use with the membrane preparation.
# The frozen PC12 cells were recovered by scraping in ice-cold Tris-HEPES buffer (5 mM Tris-HEPES, pH 7.7, 0.5 mM EDTA, 0.5 mM EGTA and 0.5 mM MgCl2) and Potter homogenized. After centrifuging at 75,000 g for 20 min, the residue was washed in ice-cold Tris-HEPES buffer then again centrifuged. This last operation was performed twice. […]
# The reaction was halted by rapid vacuum filtration through GF/B fibre glass filters treated with 0.3% PEI using filtering equipment of Brandel® type, followed by three rapid washings of the filters using 3 ml of ice-cold 50 mM Tris-HCl buffer, pH 7.4. The radioactivity retained on the dried filters was determined using a Minaxi gamma counter (Packard, Meriden, CT, USA). Non-specific binding was determined by [^125I]PIC binding in the presence of 10 μM PIC and represented about 43% of total radioactivity.
# 3T3-L1 adipocytes = experiment: Secretion of adiponectin by differentiated 3T3-L1 adipocytes (ELISA); type: cell-based, murine; settings: 3 μmol/l, 6 h; control 212.6±19.1
# Description: 3T3-L1 murine preadipocytes were cultured to confluence at 37° C. in DMEM medium containing 4.5 g/litre of D-glucose, 10% FCS and antibiotics. At confluence, differentiation of the 3T3-L1 adipocytes was initiated through the addition over 48 h of a mixture containing 100 μM methyl-isobutylxanthine, 100 nm dexamethasone and 175 nM insulin. The cells were then passaged every 2-3 days in DMEM, 10% FCS and 175 nM insulin. More than 95% of cells had the phenotype of mature adipocytes 10 days after confluence was reached.
# To determine the secretion of adiponectin by mature adipocytes, differentiated 3T3-L1 adipocytes (10 days after confluence) were placed in culture in 12-well plates and washed three times with DMEM, then cultured for 6 h in DMEM alone, in the absence or presence of 3 μM of compound 1. In some wells the antagonist selective for the imidazoline receptors I1, efaroxan, was added (100 μM) 30 min before exposure to compound 1.
# The culture medium was then recovered, centrifuged for 3 min at 10 000 g to remove cell contaminants, and the supernatant was stored at −80° C. until use. After two washings in cold PBS, the adipocytes were collected in PBS, homogenized and stored at −80° C. An aliquot of adipocyte homogenate was stored for protein determination. The adiponectin was measured using an ELISA kit following the manufacturer's recommendations. The adiponectin concentration was normalized with the cell protein content.
# [1] = system: different receptors, transporters and enzymes; experiment: Specific binding assay on different receptors, transporters and enzymes; settings: assayed at 10^−7 M and 10^−5 M
# Description: Compound 1 was assayed at two concentrations 10^−7 (1.0E-07) M and […] (1.0E-05) on different receptors, transporters and enzymes using the techniques described in the literature and adapted for the laboratory.
# SHHF rats [2] = experiment: Chronic treatment: arterial pressure and heart rate in SHHF rats; type: in vivo, rat; settings: 20 mg/kg/d in drinking water, 12 weeks
# Description: (§1) Male SHHF rats (spontaneously hypertensive, heart failure) aged 12 weeks were used for this study (Charles River breeding centre, L'Arbresle, France).
# The animals were placed in a room with controlled temperature and light, had free access to tap water and were fed a standard diet (A04, SAFE, Augy, France). This study was conducted in agreement with institutional recommendations and the rules laid down by the European Community for the use of experimental animals (L358-86/609/EEC).
# (§2) Compound 1 was administered in the drinking water for 12 weeks at a dose of 20 mg/kg/d (n=17). Water consumption was regularly measured to adjust the concentration of compound 1. Non-treated control SHHF rats had access to normal water (n=10).
# Body weight, water and food intake were measured every day. […] Three days later, arterial pressure and heart rate were recorded and a glucose tolerance test was performed.
# The rats were anesthetized with pentobarbital 50 mg/kg, i.p. (Céa santé animale, Libourne, France) and tracheotomized. […] Arterial pressure was recorded after stabilization with a pressure transducer (Gould P23XL) and recorder (Gould Electronics BS 272, Longjumeau, France). Mean arterial pressure (MAP) was calculated as diastolic pressure plus one third of differential arterial pressure. Heart rate was also recorded from the pressure signal using a Gould Biotach amplifier (model 13-4615-66).
# SHHF rats [3] = experiment: Chronic treatment: glucose tolerance test (IVGTT) in SHHF rats; type: in vivo, rat; settings: 20 mg/kg/d, 12 weeks; glucose 0.5 g/kg i.v.; control 710±37
# Description: At the end of treatment, the SHHF rats were anesthetized with sodium pentobarbital (50 mg/kg i.p.) after a fasting time of 18 h. The left femoral vein was catheterized to take blood samples for the different dosages. To perform the glucose tolerance test a solution of glucose (0.5 g/kg, i.v.) was administered and the plasma concentrations of glucose were determined after 3, 6, 10, 15, 30 and 45 minutes.
# as §1, §2
# A glucose solution of 0.5 g/kg was administered via intravenous route. The plasma concentration of glucose was evaluated using a glucometer before injection into animals that had fasted 18 h, and then 3, 6, 10, 15, 30 and 45 min after administration of the glucose (Accu Check Go, Roche Diagnostics, Meylan, France). Area under curve values (AUC) were then determined to compare the groups.
# SHHF rats [4] = experiment: Chronic treatment: body weight and food consumption in SHHF rats; type: in vivo, rat; settings: 20 mg/kg/d
# Description: as §1, §2
# Body weight, water and food intake were measured every day. After a treatment time of 12 weeks, blood samples were taken. Three days later, arterial pressure and heart rate were recorded and a glucose tolerance test was performed.
# I1 receptor, sequence (Q4G017 whole entry, looked up): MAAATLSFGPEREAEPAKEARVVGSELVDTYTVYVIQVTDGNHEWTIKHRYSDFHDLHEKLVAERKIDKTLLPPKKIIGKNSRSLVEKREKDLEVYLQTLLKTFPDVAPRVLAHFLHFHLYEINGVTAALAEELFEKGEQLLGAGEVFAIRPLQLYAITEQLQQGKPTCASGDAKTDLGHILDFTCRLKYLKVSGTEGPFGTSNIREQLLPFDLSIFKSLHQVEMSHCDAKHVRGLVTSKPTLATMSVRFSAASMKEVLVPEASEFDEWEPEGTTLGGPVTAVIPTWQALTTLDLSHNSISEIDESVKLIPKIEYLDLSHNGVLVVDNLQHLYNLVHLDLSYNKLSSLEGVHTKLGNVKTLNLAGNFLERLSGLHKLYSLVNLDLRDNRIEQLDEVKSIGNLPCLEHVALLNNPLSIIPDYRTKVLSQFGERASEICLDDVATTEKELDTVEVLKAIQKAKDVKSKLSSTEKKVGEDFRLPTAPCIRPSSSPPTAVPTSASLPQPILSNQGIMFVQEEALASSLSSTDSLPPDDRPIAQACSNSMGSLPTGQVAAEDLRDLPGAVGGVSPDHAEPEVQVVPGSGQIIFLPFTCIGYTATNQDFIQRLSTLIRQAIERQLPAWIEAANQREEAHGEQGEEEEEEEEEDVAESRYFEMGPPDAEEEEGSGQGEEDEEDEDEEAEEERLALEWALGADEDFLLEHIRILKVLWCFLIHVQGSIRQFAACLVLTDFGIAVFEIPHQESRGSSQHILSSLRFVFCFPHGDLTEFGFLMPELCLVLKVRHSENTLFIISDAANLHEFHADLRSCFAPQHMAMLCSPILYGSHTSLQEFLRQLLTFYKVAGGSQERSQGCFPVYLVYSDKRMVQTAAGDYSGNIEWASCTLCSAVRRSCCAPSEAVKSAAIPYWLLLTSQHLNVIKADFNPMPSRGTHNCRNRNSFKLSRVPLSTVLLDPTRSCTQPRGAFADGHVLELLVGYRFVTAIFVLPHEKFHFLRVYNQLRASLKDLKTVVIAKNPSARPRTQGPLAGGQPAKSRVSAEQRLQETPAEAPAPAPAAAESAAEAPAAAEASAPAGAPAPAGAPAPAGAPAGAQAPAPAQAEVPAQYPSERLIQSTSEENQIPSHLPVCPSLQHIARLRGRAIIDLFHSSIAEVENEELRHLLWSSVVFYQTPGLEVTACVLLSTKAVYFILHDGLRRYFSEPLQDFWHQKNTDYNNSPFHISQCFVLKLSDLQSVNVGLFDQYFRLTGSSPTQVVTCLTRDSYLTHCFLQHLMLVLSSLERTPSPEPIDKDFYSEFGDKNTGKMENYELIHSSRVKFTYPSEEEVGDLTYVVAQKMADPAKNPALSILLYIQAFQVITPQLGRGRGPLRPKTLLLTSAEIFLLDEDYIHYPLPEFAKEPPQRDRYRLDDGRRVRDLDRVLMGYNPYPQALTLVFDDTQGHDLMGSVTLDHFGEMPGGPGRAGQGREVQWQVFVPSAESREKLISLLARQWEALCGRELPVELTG
smiles,measurement,setting,value
"Cc1c(Cl)cccc1NC1=NCC(C)C1.Cl (stereo not drawn) [Compound 1, (3-Chloro-2-methyl-phenyl)-(4-methyl-4,5-dihydro-3H-pyrrol-2-yl)-amine hydrochloride]",share of sites with high affinity,I1 receptor,55%
same,secretion of adiponectin,3T3-L1 adipocytes,378±38 ng/ml/mg of proteins
same,"affinity for more than 50 receptors, transporters and enzymes",[1]; hydrochloride,does not exhibit any affinity similar to the affinity for the imidazoline receptor I1
same,"affinity for more than 50 receptors, transporters and enzymes","[1]; listed as compound 1, hydrochloride","does not bind to any of the assayed receptors, transporters and enzymes with affinity similar"
same,arterial pressure,SHHF rats [2]; control 176±6,153±7 mmHg
same,heart rate,SHHF rats [2]; control 361±8,367±6 bpm
same,AUC after the glucose tolerance test,SHHF rats [3],556 ± 20 mmol·min/L
same,body weight,SHHF rats [4]; after 9 weeks until end of treatment,lower body weight than the controls
same,food consumption,SHHF rats [4]; after one week's treatment,below that of the controls
